Tests used:
Type in all cases: cell-based
ETV6-TRKC = biological target: T1, ETV6-TRKC (Homo sapiens, UniProt Q16288); assay: Engineered Ba/F3 cell proliferation inhibition (MTS), ETV6-TRKC; conditions: 72 h
T1 construct: fused on or other part: P41212 (Transcription factor ETV6)
From the text: (§1) MTS testing kit was purchased from Promega (Madison, Wis., USA). The RPMI-1640, Fetal bovine serum and Penicillin-Streptomycin were purchased from Gibco (San Francisco, Calif., USA). Dimethyl sulfoxide (DMSO) and Puromycin were purchased from Sigma (St. Louis., Mo., USA). Mouse interleukin-3 (IL-3) was purchased from Cell signaling Technology (Boston, Mass., USA).
(§2) To investigate whether a compound is able to inhibit the activity of TRK fusion mutation in cells, a mechanism-based assay using engineered Ba/F3 cell lines stably overexpressing oncogenic rearrangement or gene mutation of TRK (TPM3-TRKA, TPM3-TRKA-G595R, AFAP1-TRKB, ETV6-TRKC and ETV6-TRKC-G623R) were developed. In this assay, inhibition of TRK fusion mutation was detected by the cell proliferation inhibition of engineered Ba/F3 cells. Engineered Ba/F3 cells were cultured in culture flasks to 40-80% confluence in RPMI-1640 supplemented with 10% fetal bovine serum, 2 ug/mL puromycin. Cells were collected and plated onto 96-well plates at desired cell density (Ba/F3-TPM3-TRKA: 3×10^4/mL, Ba/F3-TPM3-TRKA-G595R: 1×10^5/mL, Ba/F3-AFAP1-TRKB: 1×10^5/mL, Ba/F3-ETV6-TRKC: 3×10^4/mL, Ba/F3-ETV6-TRKC-G623R: 3×10^4/mL). Plates were incubated at 37° C., with 5% CO2 for 4 h. Compounds were then added to the plates with the final compound concentrations of 10000, 3333, 1111, […], 123, 41.2, 13.7, 4.6 and 1.5 nM. Plates were incubated at 37° C., with 5% CO2 for 72 h. A mixture of 20 μl MTS/100 μl medium were added to each well and the plates were incubated at 37° C., with 5% CO2 for exactly 2 h. The reaction was stopped by adding 25 μl of 10% SDS per well. The absorbance was measured at 490 nm and 650 nm (reference wavelength). IC50 was calculated using GraphPad Prism 5.0 software.

KM12 cells = KM12 cells proliferation inhibition (MTS), mechanism-based assay for TRK; conditions: Homo sapiens, KM12, 72 h
Summary of the method: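 KM12 cells (1000 cells/well, RPMI-1640 plus 10% FBS) were treated with compounds at 1.5–10000 nM final for 72 h at 37 °C. Viability was measured by MTS for 2 h, stopped with SDS, with absorbance read at 490 nm (650 nm reference). IC50 was calculated from the readings.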

TPM3-TRKA = biological target: T2, TPM3-TRKA (Homo sapiens, UniProt P04629); assay: Engineered Ba/F3 cell proliferation inhibition (MTS), TPM3-TRKA; conditions: 72 h
T2 construct: TPM3 (tropomyosin alpha-3, P06753) fusion partner; expressed in transfected cells; host or cells: Ba/F3; the other entry of the earlier key: TPM3 (P06753, Tropomyosin alpha-3 chain)
T2 sequence (P04629 510-796 limits assumed): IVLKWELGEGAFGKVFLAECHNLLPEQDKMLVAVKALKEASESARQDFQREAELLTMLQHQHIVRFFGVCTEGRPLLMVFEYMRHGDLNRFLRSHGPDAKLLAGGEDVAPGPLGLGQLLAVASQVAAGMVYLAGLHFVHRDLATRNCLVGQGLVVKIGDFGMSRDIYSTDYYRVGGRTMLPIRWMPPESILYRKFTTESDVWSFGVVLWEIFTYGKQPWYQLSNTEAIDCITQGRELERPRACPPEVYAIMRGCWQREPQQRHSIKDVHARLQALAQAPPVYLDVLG
From the text: as §1, §2

ETV6-TRKC-G623R = biological target: T3, ETV6-TRKC-G623R (Homo sapiens, UniProt Q16288, G623R); assay: Engineered Ba/F3 cell proliferation inhibition (MTS), ETV6-TRKC-G623R; conditions: 72 h
T3 construct: fused on or other part: P41212 (Transcription factor ETV6)
T3 sequence (Q16288 whole entry G623R, the tested form may be a part): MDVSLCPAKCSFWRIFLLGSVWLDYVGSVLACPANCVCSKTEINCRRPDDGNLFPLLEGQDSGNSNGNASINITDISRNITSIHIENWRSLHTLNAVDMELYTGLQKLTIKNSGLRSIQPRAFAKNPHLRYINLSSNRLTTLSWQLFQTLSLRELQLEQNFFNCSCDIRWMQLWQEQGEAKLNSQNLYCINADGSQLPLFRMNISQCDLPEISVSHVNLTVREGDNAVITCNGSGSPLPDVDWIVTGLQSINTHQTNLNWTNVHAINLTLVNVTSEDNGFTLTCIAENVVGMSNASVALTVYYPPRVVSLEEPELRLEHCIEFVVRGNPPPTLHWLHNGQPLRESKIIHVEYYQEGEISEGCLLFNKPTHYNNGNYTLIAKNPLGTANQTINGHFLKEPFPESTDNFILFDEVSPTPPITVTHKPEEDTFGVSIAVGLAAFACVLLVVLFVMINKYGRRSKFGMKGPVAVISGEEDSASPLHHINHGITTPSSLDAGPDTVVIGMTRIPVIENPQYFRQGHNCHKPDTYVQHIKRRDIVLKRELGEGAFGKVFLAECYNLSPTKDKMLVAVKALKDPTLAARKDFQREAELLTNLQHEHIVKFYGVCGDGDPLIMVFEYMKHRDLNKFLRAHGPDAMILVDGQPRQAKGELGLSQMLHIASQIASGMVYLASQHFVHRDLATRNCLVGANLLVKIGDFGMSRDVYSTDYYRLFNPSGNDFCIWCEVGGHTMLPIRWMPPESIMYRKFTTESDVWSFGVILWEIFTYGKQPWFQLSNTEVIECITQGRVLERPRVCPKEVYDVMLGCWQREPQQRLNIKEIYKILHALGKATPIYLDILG
Summary of the method: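 Ba/F3 cells stably expressing the TRK fusion, grown with puromycin, were plated 4 h then treated 72 h at 37 °C with compound 1.5–10000 nM final. Proliferation measured by MTS (2 h), absorbance at 490 nm with 650 nm reference; IC50 derived by curve fit.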

TPM3-TRKA-G595R = biological target: T4, TPM3-TRKA-G595R (Homo sapiens, UniProt P04629, G595R); assay: Engineered Ba/F3 cell proliferation inhibition (MTS), TPM3-TRKA-G595R; conditions: 72 h
T4 construct: TPM3 (tropomyosin alpha-3, P06753) fusion partner; expressed in transfected cells; host or cells: Ba/F3; the other entry of the earlier key: TPM3 (P06753, Tropomyosin alpha-3 chain)
T4 sequence (P04629 510-796 G595R limits assumed): as the sequence (P04629 510-796 limits assumed) above, with G86R counted along it
From the text: as §1, §2

T1 sequence (Q16288 whole entry, the tested form may be a part): as the sequence (Q16288 whole entry G623R, the tested form may be a part) above, with R623G counted along it

## C[C@H]1CNC(=O)c2cnn3ccc(nc23)N2CCC3CC32c2cc(F)ccc2O1 (stereo partly drawn) [Example 3, (1^3E,1^4E,5S)-3^5-fluoro-5-methyl-4-oxa-2^2,7-diaza-1(5,3)-pyrazolo[1,5-a]pyrimidina-2(2,1)-bicyclo[3.1.0]hexana-3(1,2)-benzenacyclooctaphan-8-one]
ETV6-TRKC
  IC50: 1 nM
KM12 cells
  IC50: 1 nM

## C[C@@H]1COc2ncc(F)cc2C2(CC2)Nc2ccn3ncc(c3n2)C(=O)N1 [Example 8, (R,3′E,4′E)-5′-fluoro-7′-methylspiro[cyclopropane-1,3′-5-oxa-2,8-diaza-1(5,3)-pyrazolo[1,5-a]pyrimidina-4(3,2)-pyridinacyclononaphan]-9′-one]
ETV6-TRKC
  IC50: 1 nM
KM12 cells
  IC50: 4 nM
TPM3-TRKA
  IC50: 3 nM
ETV6-TRKC-G623R
  IC50: 39 nM
TPM3-TRKA-G595R
  IC50: 67 nM

## C[C@@H]1COc2ccc(F)cc2[C@@]23C[C@@H]2CCN3c2ccn3ncc(c3n2)C(=O)N1 [Example 15, (1^3E,1^4E,2^1R,2^5S,6R)-3^5-fluoro-6-methyl-4-oxa-2^2,7-diaza-1(5,3)-pyrazolo[1,5-a]pyrimidina-2(2,1)-bicyclo[3.1.0]hexana-3(1,2)-benzenacyclooctaphan-8-one]
ETV6-TRKC
  IC50: 1 nM
KM12 cells
  IC50: 1 nM
TPM3-TRKA
  IC50: 1 nM
ETV6-TRKC-G623R
  IC50: 1 nM
TPM3-TRKA-G595R
  IC50: 1 nM

## O=C1NCCOc2ccc(F)cc2[C@@]23C[C@@H]2CCN3c2ccn3ncc1c3n2 [Example 16, (1^3E,1^4E,2^1R,2^5S)-3^5-fluoro-4-oxa-2^2,7-diaza-1(5,3)-pyrazolo[1,5-a]pyrimidina-2(2,1)-bicyclo[3.1.0]Hexana-3(1,2)-benzeneacyclooctaphan-8-one]
ETV6-TRKC
  IC50: 1 nM
KM12 cells
  IC50: 1 nM
TPM3-TRKA
  IC50: 1 nM
ETV6-TRKC-G623R
  IC50: 2 nM
TPM3-TRKA-G595R
  IC50: 1 nM

## C[C@@H]1COc2ncc(F)cc2[C@@]23C[C@@H]2CCN3c2ccc3ncc(n3n2)C(=O)N1 [Example 18]
ETV6-TRKC
  IC50: 1 nM
KM12 cells
  IC50: 1 nM
TPM3-TRKA
  IC50: 1 nM
ETV6-TRKC-G623R
  IC50: 2 nM
TPM3-TRKA-G595R
  IC50: 1 nM

## C[C@@H]1COc2ncc(F)cc2[C@@]23C[C@@H]2CCN3c2ccn3ncc(c3n2)C(=O)N1 [Example 19, (1^3E,1^4E,2^1R,2^5S,6R)-3^5-fluoro-6-methyl-4-oxa-2^2,7-diaza-1(5,3)pyrazolo[1,5-a]pyrimidina-3(3,2)-pyridina-2(2,1)-bicyclo[3.1.0]hexanacyclooctaphan-8-one]
ETV6-TRKC
  IC50: 1 nM
KM12 cells
  IC50: 1 nM
TPM3-TRKA
  IC50: 1 nM
ETV6-TRKC-G623R
  IC50: 1 nM
TPM3-TRKA-G595R
  IC50: 1 nM

## C[C@@H]1CCc2ncc(F)cc2[C@@]23C[C@@H]2CCN3c2ccn3ncc(c3n2)C(=O)N1 [Example 20, (1^3E,1^4E,2^1R,2^5S,6R)-3^5-fluoro-6-methyl-2^2,7-diaza-1(5,3)-pyrazolo[1,5-a]pyrimidina-3(3,2)-pyridina-2(2,1)-bicyclo[3.1.0]hexanacyclooctaphan-8-one]
ETV6-TRKC
  IC50: 1 nM
KM12 cells
  IC50: 1 nM
TPM3-TRKA
  IC50: 1 nM
ETV6-TRKC-G623R
  IC50: 1 nM
TPM3-TRKA-G595R
  IC50: 1 nM

## C[C@H]1CNC(=O)c2cnn3ccc(nc23)N2CC[C@H]3C[C@]32c2cc(F)ccc2O1 [Example 22, (1^3E,1^4E,2^1R,2^5S,5S)-3^5-fluoro-5-methyl-4-oxa-2^2,7-diaza-1(5,3)-pyrazolo[1,5-a]pyrimidina-2(2,1)-bicyclo[3.1.10]hexana-3(1,2)-benzenacyclooctaphan-8-one]
ETV6-TRKC
  IC50: 1 nM
KM12 cells
  IC50: 1 nM
TPM3-TRKA
  IC50: 1 nM
ETV6-TRKC-G623R
  IC50: 1 nM
TPM3-TRKA-G595R
  IC50: 1 nM

## C[C@H]1COc2ccc(F)cc2[C@@]23C[C@@H]2CCN3c2ccn3ncc(c3n2)C(=O)N1 [Example 24, (1^3E,1^4E,2^1R,2^5S,6S)-35-fluoro-6-methyl-4-oxa-2^2,7-diaza-1(5,3)-pyrazolo[1,5-a]pyrimidina-2(2,1)-bicyclo[3.1.0]hexana-3(1,2)-benzenacyclooctaphan-8-one]
ETV6-TRKC
  IC50: 1 nM
KM12 cells
  IC50: 1 nM
TPM3-TRKA
  IC50: 1 nM
ETV6-TRKC-G623R
  IC50: 4 nM
TPM3-TRKA-G595R
  IC50: 1 nM

## C[C@@H]1CCc2ccc(F)cc2[C@@]23C[C@@H]2CCN3c2ccn3ncc(c3n2)C(=O)N1 [Example 27, (1^3E,1^4E,2^1R,2^5S,6R)-3^5-fluoro-6-methyl-2^2,7-diaza-1(5,3)-pyrazolo[1,5-a]pyrimidina-2(2,1)-bicyclo[3.1.0]hexana-3(1,2)-benzeneacyclooctaphan-8-one]
ETV6-TRKC
  IC50: 1 nM
KM12 cells
  IC50: 1 nM
TPM3-TRKA
  IC50: 1 nM
ETV6-TRKC-G623R
  IC50: 1 nM
TPM3-TRKA-G595R
  IC50: 1 nM

## C[C@@H]1CCc2ncc(F)cc2[C@@]23C[C@@H]2CCN3c2ccc3ncc(n3n2)C(=O)N1 [Example 29, (2^1R,2^5S,6R,E)-3^5-fluoro-6-methyl-2^2,7-diaza-1(6,3)-imidazo[1,2-b]pyridazina-3(3,2)-pyridina-2(2,1)-bicyclo[3.1.0]hexanacyclooctaphan-8-one]
ETV6-TRKC
  IC50: 1 nM
KM12 cells
  IC50: 1 nM
TPM3-TRKA
  IC50: 1 nM
ETV6-TRKC-G623R
  IC50: 1 nM
TPM3-TRKA-G595R
  IC50: 1 nM

## C[C@H]1CCc2ccc(F)cc2[C@@]23C[C@@H]2CCN3c2ccn3ncc(c3n2)C(=O)N1 [Example 31, (1^3E,1^4E,2^1R,2^5S,6S)-35-fluoro-6-methyl-2^2,7-diaza-1(5,3)-pyrazolo[1,5-a]pyrimidina-2(2,1)-bicyclo[3.1.0]hexana-3(1,2)-benzenecyclo-octaphan-8-one]
ETV6-TRKC
  IC50: 1 nM
KM12 cells
  IC50: 1 nM
TPM3-TRKA
  IC50: 1 nM
ETV6-TRKC-G623R
  IC50: 3 nM
TPM3-TRKA-G595R
  IC50: 1 nM

## C[C@@H]1COc2ccc(F)cc2[C@@]23C[C@@H]2CCN3c2ccc3ncc(n3n2)C(=O)N1 [Example 36, (2^1R,2^5S,6R,E)-3^5-fluoro-6-methyl-4-oxa-2^2,7-diaza-1(6,3)-imidazo[1,2-b]pyridazina-2(2,1)-bicyclo[3.1.0]hexana-3(1,2)-benzenacyclooctaphan-8-one]
ETV6-TRKC
  IC50: 3 nM
KM12 cells
  IC50: 6 nM
TPM3-TRKA
  IC50: 2 nM
ETV6-TRKC-G623R
  IC50: 13 nM
TPM3-TRKA-G595R
  IC50: 17 nM

## O=C1NC2(CC2)COc2ncc(F)cc2C2(CC2)Nc2ccn3ncc1c3n2 [Example 41, (3′E,4′E)-5′-fluorodispiro[cyclopropane-1,3′-5-oxa-2,8-diaza-1(5,3)-pyrazolo[1,5-a]pyrimidina-4(3,2)-pyridina-cyclononaphane-7′,1″-cyclopropan]-9′-one]
KM12 cells
  IC50: 1 nM
TPM3-TRKA
  IC50: 1 nM
ETV6-TRKC-G623R
  IC50: 26 nM
TPM3-TRKA-G595R
  IC50: 30 nM

## O=C1NCCOc2ncc(F)cc2C2(CC2)Nc2ccn3ncc1c3n2 [Example 44, (3′E,4′E)-5′-fluorospiro[cyclopropane-1,3′-5-oxa-2,8-diaza-1(5,3)-pyrazolo[1,5-a]pyrimidina-4(3,2)-pyridinacyclononaphan]-9′-one]
ETV6-TRKC
  IC50: 26 nM
KM12 cells
  IC50: 35 nM
TPM3-TRKA
  IC50: 18 nM

## CN1c2ccn3ncc(c3n2)C(=O)NCCOc2ncc(F)cc2C12CC2 [Example 50, (3′E,4′E)-5′-fluoro-2′-methylspiro-[cyclopropane-1,3′-5-oxa-2,8-diaza-1(5,3)-pyrazolo[1,5-a]pyrimidina-4(3,2)-pyridina-cyclononaphan]-9′-one]
ETV6-TRKC
  IC50: 2 nM
KM12 cells
  IC50: 10 nM
TPM3-TRKA
  IC50: 11 nM
ETV6-TRKC-G623R
  IC50: 68 nM

## CCN1c2ccn3ncc(c3n2)C(=O)NCCOc2ncc(F)cc2C12CC2 [Example 66, (3′E,4′E)-2′-ethyl-5′-fluorospiro-[cyclopropane-1,3′-5-oxa-2,8-diaza-1(5,3)-pyrazolo[1,5-a]pyrimidina-4(3,2)-pyridinacyclononaphan]-9′-one]
ETV6-TRKC
  IC50: 15 nM
KM12 cells
  IC50: 34 nM
TPM3-TRKA
  IC50: 60 nM

## CN1c2ccn3ncc(c3n2)C(=O)NCCCOc2ncc(F)cc2C12CC2 [Example 68, (3′E,4′E)-5′-fluoro-2′-methylspiro-[cyclopropane-1,3′-5-oxa-2,9-diaza-1(5,3)-pyrazolo[1,5-a]pyrimidina-4(3,2)-pyridina-cyclodecaphan]-10′-one]
KM12 cells
  IC50: 10 nM
TPM3-TRKA
  IC50: 8 nM
ETV6-TRKC-G623R
  IC50: 33 nM
TPM3-TRKA-G595R
  IC50: 53 nM

From US11555042B2, “Macrocyclic compounds as TRK kinases inhibitors” (FOCHON BIOSCIENCES, LTD., priority 2018, dated 2023)
